From patent US8933107B2, “Pesticide thiazolyloxy substituted phenylamidine derivatives” (Bayer Cropscience AG, priority 2005, dated 2015) come the findings set out here.

One data set in a line: physchem. The following applies: reversed-phase HPLC column (C 18).
The subject of data set [1] is Puccinia recondita f. Sp. tritici. Put plainly: In vivo preventive test on Puccinia recondita f. Sp. tritici (wheat brown rust). The following applies: topical, 240 h, 1000 ppm of active ingredient, evaluated 10 days after inoculation, read-out: efficacy.
Data set [2] has as its system Erysiphe graminis f. sp. hordei. The experiment in a line: In vivo preventive test on Erysiphe gramini (powdery mildew on barley). The following applies: Blumeria graminis, 168 h, 1000 ppm of active ingredient, evaluated 7 days after inoculation, read-out: efficacy.
A further data set has as its system Alternaria solani. Put plainly: In vivo protective test on Alternaria solani (leaf spot of tomato). The following applies: 168 h, 500 ppm of active ingredient, evaluated 7 days after inoculation, read-out: efficacy.
The next data set relates to Podosphaera leucotricha. Put plainly: In vivo protective test on Podosphaera leucotricha (apples). The following applies: topical, 240 h, 100 ppm of active ingredient, evaluated 10 days after inoculation, read-out: efficacy.

A word on the chromatographic logP: it is lipophilicity estimated from chromatographic retention. Lower therefore signals lower lipophilicity. Turning to `Cc1cc(Oc2nc(C)c(C)s2)c(C)cc1/N=C/N(C)C(C)C` [Compound 1.37], the chromatographic logP in the data set “physchem” was 1.98.
As for `CCN(C)/C=N/c1cc(C)c(Oc2nnc(C(C)C)s2)cc1C` [Compound 3.22], the chromatographic logP in the data set “physchem” worked out at 1.61.
`CCN(C)/C=N/c1cc(C)c(Oc2nc(Cl)ns2)cc1C` [Compound 2.5]: the chromatographic logP in “physchem” was found to be 1.56.
As for `CCN(C)/C=N/c1ccc(Oc2nc(C)c(C)s2)cc1C` [Compound 1.33], the chromatographic logP in the data set “physchem” came to 1.65.
On the same count and under the same terms, with `CCN(C)/C=N/c1cc(C)c(Oc2nc(-c3ccccc3)cs2)cc1C` [Compound 1.60] the figure was 2.18; with `Cc1cc(Oc2nnc(C(C)C)s2)c(C)cc1/N=C/N(C)C(C)C` [Compound 3.19], 1.69.
On to `CCCc1sc(Oc2cc(C)c(/N=C/N(C)CC)cc2C)nc1C` [Compound 1.36], for which, in “physchem”, the chromatographic logP is 2.22.
Consider `Cc1cc(Oc2nc(C(C)C)ns2)c(C)cc1/N=C/N(C)C(C)C` [Compound 2.4], for which the chromatographic logP in the data set “physchem” was 1.89. For the same molecule, the pest or weed control at 1000 ppm in data set [1] and in data set [2] was ≥ 70% each time.
With `Cc1cc(Oc2nnc(-c3ccccc3)s2)c(C)cc1/N=C/N(C)C(C)C` [Compound 3.6], the chromatographic logP in the data set “physchem” stood at 2.
`Cc1cc(Oc2nc(Cl)c(Cl)s2)c(C)cc1N` [II-1, 4-[(4,5-dichloro-1,3-thiazol-2-yl)oxy]-2,5-dimethylaniline]: in the data set “physchem” (pH 2.3), the chromatographic logP came to 3.4.
Take `Cc1cc(Oc2nc(C)c(C)s2)ccc1/N=C/N(C)C(C)C` [Compound 1.34]: the chromatographic logP in the data set “physchem” is 1.66.
Turning to `CCN(C)/C=N/c1cc(C)c(Oc2nc(Cl)c(C(C)(C)C)s2)cc1C` [Compound 1.73], in “physchem”, the chromatographic logP was determined as 2.87. For the same molecule, the pest or weed control at 1000 ppm in data set [1] was ≥ 70%.
With `CCCc1sc(Oc2cc(C)c(/N=C/N(C)C(C)C)cc2C)nc1C` [Compound 1.35], the chromatographic logP in the data set “physchem” is 2.29.
The same measure, in the same setting: the figure for `CCN(C)/C=N/c1ccc(Oc2nc(Cl)c(Cl)s2)cc1C` [Compound 1.39] is 1.99.
Turning to `CCN(C)/C=N/c1cc(C)c(Oc2nnc(C(F)(F)F)s2)cc1C` [Compound 3.2], in “physchem”, the chromatographic logP came to 1.78. Moreover, the pest or weed control at 500 ppm in the data set on Alternaria solani was ≥ 70%. The pest or weed control at 1000 ppm in data set [1] and in data set [2] was ≥ 70% each time.
The molecule `CCN(C)/C=N/c1ccc(Oc2nc(C(C)C)ns2)cc1C` [Compound 2.2] came in with a chromatographic logP in the data set “physchem” of 1.57. Moreover, the pest or weed control at 1000 ppm in data set [1] and in data set [2] was ≥ 70% throughout.
For `CSc1nnc(Oc2cc(C)c(/N=C/N(C)C(C)C)cc2C)s1` [Compound 3.18], in the data set “physchem”, the chromatographic logP is 1.82.
The same measure, in the same setting: the figure for `Cc1cc(Oc2nc(Cl)ns2)c(C)cc1/N=C/N(C)C(C)C` [Compound 2.6] is 1.67.
As for `Cc1cc(Oc2nc(Cl)c(Cl)s2)ccc1/N=C/N(C)C(C)C` [Compound 1.28], in the data set “physchem”, the chromatographic logP amounted to 2.09. For the same molecule, the pest or weed control at 1000 ppm in data set [1] and in data set [2] was ≥ 70% each time.
Molecule `Cc1cc(Oc2nc(C(C)C)ns2)ccc1/N=C/N(C)C(C)C` [Compound 2.1] gave a chromatographic logP in “physchem” of 1.77.
Regarding `Cc1cc(Oc2nc(C(C)(C)C)c(Cl)s2)c(C)cc1/N=C/N(C)C(C)C` [Compound 1.64], the chromatographic logP in the data set “physchem” is 2.79. The pest or weed control at 500 ppm in the data set on Alternaria solani was ≥ 70%.
With `CCN(C)/C=N/c1cc(C)c(Oc2nc(Cl)c(C=O)s2)cc1C` [Compound 1.62], in the data set “physchem”, the chromatographic logP came to 1.68.
As to `CCN(C)/C=N/c1cc(C)c(Oc2nc(C#N)c(Cl)s2)cc1C` [Compound 1.72], the chromatographic logP in “physchem” amounted to 1.74. The pest or weed control at 100 ppm in the data set on Podosphaera leucotricha is ≥ 70%. Moreover, the pest or weed control at 1000 ppm in data set [1] was ≥ 70%.
On to `Cc1cc(Oc2nc(C)c(Cl)s2)c(C)cc1/N=C/N(C)C(C)C` [Compound 1.13], for which the chromatographic logP in “physchem” turned out to be 2.14. Moreover, the pest or weed control at 500 ppm with Alternaria solani was ≥ 70%. The pest or weed control at 1000 ppm in data set [1] and in data set [2] was ≥ 70% in each case.
Molecule `CCN(C)/C=N/c1cc(C)c(Oc2nc(C)c(C)s2)cc1C` [Compound 1.38] displayed a chromatographic logP in “physchem” of 1.87.
Still for that read-out and setting: with `CCN(C)/C=N/c1cc(C)c(Oc2nnc(-c3ccccc3)s2)cc1C` [Compound 3.3] the figure was 1.93.
The molecule `Cc1cc(Oc2nnc(C(F)(F)F)s2)c(C)cc1/N=C/N(C)C(C)C` [Compound 3.1] registered a chromatographic logP in the data set “physchem” of 1.84. Also, the pest or weed control at 1000 ppm in data set [1] and in data set [2] was ≥ 70% in each case.
For the molecule `CCN(C)C=Nc1cc(C)c(Oc2nc(C=NOC(C)(C)C)c(Cl)s2)cc1C` [Compound 1.44, N′-[4-({4-[(tert-butoxyimino)methyl]-5-chloro-1,3-thiazol-2-yl}oxy)-2,5-dimethylphenyl]-N-ethyl-N-methylimidoformamide], the chromatographic logP in the data set “physchem” and in the data set “physchem” (pH 2.3) was 2.65 each time.
In turn, `CCN(C)/C=N/c1ccc(Oc2nc(C(C)(C)C)ns2)cc1C` [Compound 2.7] registered a chromatographic logP in “physchem” of 2.04. For the same molecule, the pest or weed control at 500 ppm in the data set with Alternaria solani is ≥ 70%. The pest or weed control at 100 ppm with Podosphaera leucotricha is ≥ 70%. Further, the pest or weed control at 1000 ppm in data set [1] is ≥ 70%.
`CCN(C)/C=N/c1cc(C)c(O)cc1C` [IX-a, N-ethyl-N′-(4-hydroxy-2,5-dimethylphenyl)-N-methylimidoformamide] showed a chromatographic logP in the data set “physchem” (pH 2.3) of 0.41.
In the case of `Cc1cc(Oc2nc(Cl)cs2)c(C)cc1/N=C/N(C)C(C)C` [Compound 1.14], the chromatographic logP in “physchem” worked out at 1.7. In addition, in the data set on Alternaria solani, the pest or weed control at 500 ppm is ≥ 70%.
Turning to `Cc1cc(Oc2nc(Cl)c(C)s2)c(C)cc1/N=C/N(C)C` [Compound 1.31], in “physchem”, the chromatographic logP is 1.69.
For the molecule `CCN(C)/C=N/c1cc(C)c(Oc2nnc(SC)s2)cc1C` [Compound 3.21], the chromatographic logP in the data set “physchem” worked out at 1.69. In the data set on Alternaria solani, the pest or weed control at 500 ppm was ≥ 70%.
`CCN(C)/C=N/c1cc(C)c(Oc2nc(C(C)(C)C)c(Br)s2)cc1C` [Compound 1.71]: in “physchem”, the chromatographic logP is 2.78. For the same molecule, in the data set on Alternaria solani, the pest or weed control at 500 ppm was ≥ 70%. Moreover, the pest or weed control at 100 ppm with Podosphaera leucotricha is ≥ 70%. Also, the pest or weed control at 1000 ppm in data set [1] is ≥ 70%.
On to `Cc1cc(Oc2nc(-c3ccccc3)cs2)c(C)cc1/N=C/N(C)C(C)C` [Compound 1.61], for which the chromatographic logP in “physchem” was found to be 2.25.
In turn, `CCN(C)/C=N/c1cc(C)c(Oc2nc(C)c(C(C)=O)s2)cc1C` [Compound 1.27] registered a chromatographic logP in “physchem” of 1.5. Further, the pest or weed control at 500 ppm with Alternaria solani is ≥ 70%.
`CCN(C)/C=N/c1cc(C)c(Oc2nc(C=O)c(Cl)s2)cc1C` [Compound 1.42, N′-{4-[(5-chloro-4-formyl-1,3-thiazol-2-yl)oxy]-2,5-dimethylphenyl}-N-ethyl-N-methylimidoformamide]: the figures for the chromatographic logP in the data set “physchem” and in “physchem” (pH 2.3) were 1.46 and 1.51, respectively.
In the data set “physchem”, `CCN(C)/C=N/c1cc(C)c(Oc2nc(C(C)(C)C)cs2)cc1C` [Compound 1.75] had a chromatographic logP of 2.26. In the data set with Podosphaera leucotricha, the pest or weed control at 100 ppm was ≥ 70%. In data set [1], the pest or weed control at 1000 ppm was ≥ 70%.
On to `CCN(C)/C=N/c1cc(C)c(Oc2nc(C(C)C)c(Cl)s2)cc1C` [Compound 1.20], for which the chromatographic logP in the data set “physchem” was 2.52. Moreover, the pest or weed control at 500 ppm with Alternaria solani is ≥ 70%. Also, the pest or weed control at 1000 ppm in data set [1] and in data set [2] was ≥ 70% throughout.
